The values below come from US20030162206A1, “Ceramide kinase and DNA encoding it” (SANKYO COMPANY, LIMITED, priority 2000, published 2003).

Assay [1] concerns enzyme activity which HEK293 cell has endogenously. Kind of assay: Phosphorylation activity of lysate of HEK293 cells transfected with only pCR3.1 vector (negative-reaction control). Type of assay: biochemical, human. The conditions noted are these: substance used as substrate; lysate of HEK293 cells expressing only pCR3.1 vector. The procedure:
In order to examine whether the protein of the present invention has ceramide kinase activity, the human embryo kidney cell HEK293 (ATCC CRL-1573) was transfected with the expression vector pCR3.1-CERK1 obtained above. That is, after putting 6×10^5 HEK293 cells per well into a polylysine-coated 6-well plate for tissue culture (manufactured by Iwaki Glass) and incubating at 37° C. for 24 hours, they were transfected with one μg of pCR3.1-CERK 1 by using a transfection reagent (Lipofectamin plus, manufactured by Life technology) according to the directions attached thereto. After the operation for the transfection was finished, cells were cultured at 37° C. for one day and the conditioned medium was removed. Then, the cells were collected by using buffer solution A (10% glycerol, 1 mM dithiothreitol, 1 mM EDTA, 1 mM sodium vanadate, protease inhibitor (Complete™, manufactured by Boeheringer Mannheim), a 200 mM Hepes buffer solution, pH 7.0). By ultrasonication with a probe-type sonicater (Cell Disrupter 200, manufactured by Branson), the collected cells were broken into pieces, and the resulting cell lysate was diluted and then used for measurement of enzyme activity as shown in Example 3. […]
Specifically, 10 μl of 1 mM C6-ceramide prepared by using BSA solution (4 mg/ml) and 10 μl of a mixture of 100 mM magnesium chloride and 2 mM of radiolabeled [^32P]-gamma-ATP (manufactured by NEN) were added to 180 μl of buffer B [1 mM dithiothreitol, 1 mM EDTA, 1 mM sodium vanadate, protease inhibitor (Complete™, manufactured by Boeheringer Mannheim), 1 mM calcium chloride, a 200 mM HEPES buffer solution, pH 7.0] which further contains the protein of the present invention prepared in Example 2, and then incubated at 37° C. for 20 minutes to conduct the ceramide kinase reaction. […] The resulting extract was subjected to centrifugation at 2000×g, and the obtained lower layer (chloroform phase) was developed and analyzed on TLC. […]

Assay [2] deals with T1, protein of the present invention having ceramide kinase activity (hCERK1) (Homo sapiens, UniProt Q8TCT0).
T1 construct: expressed in transfected cells; host or cells: HEK293 (ATCC CRL-1573), transient transfection with pCR3.1-CERK1; sonicated cell lysate
T1 sequence (Q8TCT0 1-537): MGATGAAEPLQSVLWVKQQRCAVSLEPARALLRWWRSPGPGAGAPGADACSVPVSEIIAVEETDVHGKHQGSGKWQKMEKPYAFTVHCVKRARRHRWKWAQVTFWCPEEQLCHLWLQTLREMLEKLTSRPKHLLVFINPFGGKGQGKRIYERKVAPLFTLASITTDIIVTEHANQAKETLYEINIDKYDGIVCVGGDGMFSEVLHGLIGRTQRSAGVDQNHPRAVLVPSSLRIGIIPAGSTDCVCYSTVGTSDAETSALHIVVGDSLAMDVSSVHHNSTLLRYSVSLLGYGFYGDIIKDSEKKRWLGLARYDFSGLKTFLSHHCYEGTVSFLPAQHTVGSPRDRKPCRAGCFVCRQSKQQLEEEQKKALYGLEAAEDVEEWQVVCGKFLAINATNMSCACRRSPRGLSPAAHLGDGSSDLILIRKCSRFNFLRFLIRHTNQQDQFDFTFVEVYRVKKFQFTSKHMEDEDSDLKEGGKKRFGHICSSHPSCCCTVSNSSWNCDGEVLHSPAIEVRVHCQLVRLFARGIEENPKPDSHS
Kind of assay: Measurement of ceramide kinase activity, lysate of HEK293 cells transfected with pCR3.1-CERK1, [32P]-γ-ATP, TLC. The class given is biochemical. The conditions noted are these: for Phosphorylation by the protein of the present invention (in words): optimum assay conditions for ceramide kinase; for Ratio of activities (pCR3.1-CERK1/pCR3.1) / Phosphorylation activity, Transformed with pCR3.1-CERK 1: substance used as substrate; for Phosphorylation activity, Transformed with pCR3.1-CERK 1: HEK293 cell lysate, [32P]-γ-ATP, 37° C. 20 minutes, pH 7.0, natural ceramide micellized with octyl glucoside; for Effect on ceramide kinase activity (activated / inhibited): C6-ceramide as substrate, examination of optimum assay conditions. The procedure: Specifically, the solution containing the protein, HEPES buffer solution (pH 7.0) containing magnesium chloride, EDTA, dithiothreitol, sodium vanadate, and protease inhibitor (for example, Complete (trademark), manufactured by Boehringer Manheim), C6 ceramide dissolved in a substrate (bovine serum albumin (hereinafter referred to as “BSA”)) solution having a concentration of 4 mg/ml or ceramide micellized by using octyl glucoside (a preparation purified from bovine fetal brain, manufactured by Sigma), and radio-labeled ^32P-ATP are mixed and incubated at 37° C. to perform a ceramide kinase reaction. Then, the reaction is stopped by adding 1N hydrochloric acid thereto and chloroform:methanol:concentrated hydrochloric acid (100:200: 1 v/v) is added thereto and extracted. The resultant lower layer (chloroform phase) is developed on thin layer chromatography (hereinafter referred to as “TLC”), and analyzed. The ceramide kinase activity can be determined by quantifying the spot in said TLC corresponded to ceramide-1-phosphate (hereinafter referred to as “Cer-1-P”) which is a product.
That is, after putting 6×10^5 HEK293 cells per well into a polylysine-coated 6-well plate for tissue culture (manufactured by Iwaki Glass) and incubating at 37° C. for 24 hours, they were transfected with one μg of pCR3.1-CERK 1 by using a transfection reagent (Lipofectamin plus, manufactured by Life technology) according to the directions attached thereto. After the operation for the transfection was finished, cells were cultured at 37° C. for one day and the conditioned medium was removed. Then, the cells were collected by using buffer solution A (10% glycerol, 1 mM dithiothreitol, 1 mM EDTA, 1 mM sodium vanadate, protease inhibitor (Complete™, manufactured by Boeheringer Mannheim), a 200 mM Hepes buffer solution, pH 7.0). By ultrasonication with a probe-type sonicater (Cell Disrupter 200, manufactured by Branson), the collected cells were broken into pieces, and the resulting cell lysate was diluted and then used for measurement of enzyme activity as shown in Example 3.
Specifically, 10 μl of 1 mM C6-ceramide prepared by using BSA solution (4 mg/ml) and 10 μl of a mixture of 100 mM magnesium chloride and 2 mM of radiolabeled [^32P]-gamma-ATP (manufactured by NEN) were added to 180 μl of buffer B [1 mM dithiothreitol, 1 mM EDTA, 1 mM sodium vanadate, protease inhibitor (Complete™, manufactured by Boeheringer Mannheim), 1 mM calcium chloride, a 200 mM HEPES buffer solution, pH 7.0] which further contains the protein of the present invention prepared in Example 2, and then incubated at 37° C. for 20 minutes to conduct the ceramide kinase reaction. Next, after stopping the reaction by adding 20 μl of 1 N hydrochloric acid, 800 μl (100:200:1, v/v) of chloroform:methanol:concentrated hydrochloric acid, 250 μl of 2.5 M potassium chloride, and 250 μl of chloroform were added thereto and extracted. The resulting extract was subjected to centrifugation at 2000×g, and the obtained lower layer (chloroform phase) was developed and analyzed on TLC.
That is, a necessary amount of ceramide dissolved in chloroform was dried to be solid under a nitrogen air current, and the buffer solution B which contains 0.2% of octyl glucoside was added thereto, and then subjected to ultrasonication, and finally 100 μM ceramide solution was provided. 90 μl of the mixture of buffer solution B containing the enzyme solution and 10 μl of the mixture consisting of 100 mM magnesium chloride and 2 mM radio-labeled [^32P]-γ-ATP were added to 100 μl of said substrate solution, and then incubated at 37° C. for 20 minutes to perform the ceramide kinase reaction. Extraction of Cer-1-P was conducted by a similar procedure to the above-mentioned.

Turning to `CCCCCCCCCCCCC/C=C/[C@@H](O)[C@@H](N)CO` [D-erythro-sphingosine], the “Phosphorylation activity, Transformed with pCR3.1” value in assay [1] is listed as 50 pmol/min/mg. Moreover, in assay [2], the “Phosphorylation by the protein of the present invention (in words)” value (from here on “Phosphorylation by the protein”) is “hardly phosphorylated”; the “Ratio of activities (pCR3.1-CERK1/pCR3.1)” value was determined as 1; the “Phosphorylation activity, Transformed with pCR3.1-CERK 1” value came out at 50 pmol/min/mg.

With Triton X-100, in assay [2], the “Effect on ceramide kinase activity (activated / inhibited)” value (shortened to “Effect … (activated / inhibited)”) is given as “inhibited”.

Turning to `C[C@H](CCC(=O)O)[C@H]1CC[C@H]2[C@@H]3[C@H](O)C[C@@H]4C[C@H](O)CC[C@]4(C)[C@H]3C[C@H](O)[C@]12C` [cholic acid], the “Effect … (activated / inhibited)” value in assay [2] was “inhibited”.

With diacylglycerol [DG], the “Phosphorylation activity, Transformed with pCR3.1” value in assay [1] was 130 pmol/min/mg. Moreover, in assay [2], the “Phosphorylation by the protein” value was “hardly phosphorylated”; the “Ratio of activities (pCR3.1-CERK1/pCR3.1)” value is 1; the “Phosphorylation activity, Transformed with pCR3.1-CERK 1” value is on record as 150 pmol/min/mg.

Consider phosphatidylserine, for which the “Effect … (activated / inhibited)” value in assay [2] was “inhibited”.

A word on the Km: it is the concentration of substrate that gives half-maximal velocity. As to `CCCCCCCCCCCCC/C=C/[C@@H](O)[C@H](CO)NC(=O)CCCCC` [C6-ceramide, N-hexanoyl form of D-erythro-sphingosine], in assay [1], the “Phosphorylation activity, Transformed with pCR3.1” value came to 7 pmol/min/mg. Moreover, in assay [2], the “Phosphorylation by the protein” value was “high efficiency”; the “Ratio of activities (pCR3.1-CERK1/pCR3.1)” value amounted to 183; the “Phosphorylation activity, Transformed with pCR3.1-CERK 1” value was 1280 pmol/min/mg. Also, the Michaelis constant (Km) in assay [2] (substrate C6-ceramide) is 7 µM.

`[Ca+2].[Cl-].[Cl-]` [calcium chloride]: the “Effect … (activated / inhibited)” value in assay [2] is on record as “activated”.

In the case of `[Cl-].[Cl-].[Mg+2]` [magnesium chloride], in assay [2], the “Effect … (activated / inhibited)” value is listed as “activated”.
